Experimental data as given in patent US12285432B2, “Treatment of hair loss disorders with deuterated JAK inhibitors” (Sun Pharmaceutical Industries, Inc., priority 2021, dated 2025).
Like-named read-outs stand apart in the source and are kept apart here.

Legend:
[1] = Drug-drug interaction study of Compound (I) (CTP-543) and itraconazole in healthy volunteers, plasma pharmacokinetics; assay type: in vivo, human
alopecia areata = assay: Human clinical trials of CTP-543 in patients suffering from alopecia areata; assay type: in vivo
[2] = cited from earlier work
[3] = 12 mg Compound (I) alone (Reference), healthy volunteers, plasma
[4] = 12 mg Compound (I) with vs without itraconazole
[5] = 10 mg ruxolitinib with vs without ketoconazole 200 mg twice a day, healthy volunteers

| SMILES | AUC(0-Tlast) [1, 3] | AUC(0-∞) [1, 3] | AUC(0-Tlast) ([1]; 12 mg Compound (I) with itraconazole 200 mg (Test), healthy volunteers, plasma) | increase in the AUC as a result of dosing with itraconazole [1, 4] | increase in the Cmax as a result of dosing with itraconazole [1, 4] | half-life ([1]; Compound (I) without itraconazole) | Cmax ([1]; human, plasma, 12 mg) | half-life ([1]; human, plasma, 12 mg, read-out: t1/2 (converted)) | half-life ([1]; human, plasma, read-out: half-life (converted)) | hair growth in patients suffering from alopecia areata (alopecia areata) | half-life ([2]; 10 mg ruxolitinib dosed with ketoconazole) | AUC increase as a result of dosing with ketoconazole [2, 5] | Cmax increase as a result of dosing with ketoconazole [2, 5] | half-life ([2]; 10 mg ruxolitinib without ketoconazole) |
| --- | --- | --- | --- | --- | --- | --- | --- | --- | --- | --- | --- | --- | --- | --- |
| [2H]C1([2H])C([C@@H](CC#N)n2cc(-c3ncnc4[nH]ccc34)cn2)C([2H])([2H])C([2H])([2H])C1([2H])[2H] [Compound (I), (R)-3-(4-(7H-pyrrolo[2,3-d]pyrimidin-4-yl)-1H-pyrazol-1-yl)-3-(cyclopentyl-2,2,3,3,4,4,5,5-d8)propanenitrile] | 1326.80 ng·h/mL | 1332.48 ng·h/mL | 1679.53 ng·h/mL | ~27% | ~13% | 4.18 h | 266 ng/mL | 4.13 h | 4.62 h | stimulate hair growth |  |  |  |  |
| N#CC[C@H](C1CCCC1)n1cc(-c2ncnc3[nH]ccc23)cn1.O=P(O)(O)O [ruxolitinib, (R)-3-(4-(7H-pyrrolo[2,3-d]pyrimidin-4-yl)-1H-pyrazol-1-yl)-3-cyclopentylpropanenitrile phosphate] |  |  |  |  |  |  |  |  |  |  | 6.0 h | 91% | 33% | 3.7 h |
